Each structure is given as a SMILES string.

For assay [1], the system named is rat mPFC layer V pyramidal cells. The assay can be described thus: Spontaneous EPSCs in acute rat brain slices. In kind it is cell-based.
Assay [2] shares this test system. Description: Inward. In kind it is cell-based.
Assay [3] has the same test system. In kind it is cell-based. The note with it: 10 μM; 1 μM TTX.
For assay [4], the system named is mPFC layer V neurons, wildtype (WT) mice. The assay can be described thus: Spontaneous EPSCs in slices from wild-type mice. It is filed as cell-based, mouse.
Assay [5] has as its system hM4 receptor. Description: Millipore GPCR Profiler functional screen, hM4. It is filed as cell-based, human. The note with it: two-addition protocol, BQCA 12.5 μM in first addition.
Assay [6] has as its system hM1 receptor. The assay can be described thus: Millipore GPCR Profiler functional screen, hM1. It is filed as cell-based, human. The note with it: two-addition protocol, BQCA 12.5 μM in first addition.
For assay [7], the system named is 15 other closely related GPCRs. The assay can be described thus: Millipore GPCR Profiler functional screen, GPCR panel. It is filed as cell-based.
Where [8] appears, read: 10 μM applied alone, −70 mV, 1 μM TTX.

With `O=C(CCNS(=O)(=O)c1cccc2nsnc12)N1CCN(c2ccncc2)CC1` [VU0255035], the sEPSC amplitude in assay [1] (5 μM antagonist with 30 μM CCh) is on record as 87.1 ± 3.5 % control; in assay [1] (5 μM applied alone), 92.9 ± 3.4 % control. For the same compound, the sEPSC frequency in assay [1] (5 μM antagonist with 30 μM CCh) is 62.5 ± 10.1 % control; in assay [1] (5 μM applied alone), 114.1 ± 25.8 % control. In addition, the results for the “Inward current (change in holding current)” value in assay [2] (setting [8]) and in assay [2] (100 μM CCh in the presence of 10 μM VU0255035) were “no effect” and 11.78 ± 1.90 pA, respectively.
On to `C[N+](C)(C)CCOC(N)=O` [CCh, carbachol], for which the sEPSC amplitude was 97.5 ± 4.4 % control in assay [1] (10 μM applied alone); 108.3 ± 3.9 % control in assay [1] (30 μM applied alone); 154.3 ± 46.2 % control in assay [1] (100 μM applied alone); 102.6 ± 11.7 % of control in assay [4] (3 μM applied alone); 143.1 ± 22.0% in assay [4] (30 μM applied alone). Moreover, the sEPSC frequency in assay [1] (10 μM applied alone) worked out at 90.1 ± 12.4 % control; in assay [1] (30 μM applied alone) it was 455.0 ± 101.9 % control; in assay [1] (100 μM applied alone), 887.6 ± 268.5 % control; in assay [4] (3 μM applied alone) it was 83.2 ± 47.1%; in assay [4] (30 μM applied alone), 398.3 ± 56.2%. For the same compound, in assay [3], the mEPSC amplitude was 88.6 ± 3.8 % control. Also, the “Inward current (change in holding current)” value in assay [2] (setting [8]) was determined as 16.55 ± 1.93 pA; in assay [2] (100 μM applied alone, −70 mV, 1 μM TTX) it was 53.14 ± 5.92 pA.
`COc1ccc(Cn2cc(C(=O)[O-])c(=O)c3ccccc32)cc1.[Na+]` [BQCA, Sodium 1-(4-methoxybenzyl)-4-oxo-1,4-dihydroquinoline-3-carboxylate]: the “Activity in the functional screen” value in assay [5] is listed as “no activity”. The “Potentiation of the functional response” value in assay [6] is “robust potentiation”. The “Agonist activity when applied alone in the first addition” value in assay [7] (12.5 μM, any receptor tested) is given as “no agonist activity”. In assay [7] (two-addition protocol, BQCA 12.5 μM in first addition), the “Effect (PAM or antagonist activity) at the other GPCRs tested” value is “no effect”.

The record behind these values is PMC2811323 (The Journal of neuroscience : the official journal of the …, 2009).
